This is an account of results in patent publication US20260285888A1, “HETEROCYCLIC COMPOUND AND USE THEREOF” (OTSUKA PHARMACEUTICAL CO., LTD., priority 2023, published 2026).

One data set is described as follows: in vitro. The format is cell-based, human. Conditions: human, differentiated hl-60 cells, 300 μmol/L, about 24 hours, PMA-differentiated HL-60 cells, LDH; no-treatment 0%, cell lysis buffer 100%; read-out: cytotoxicity (%) Evaluation compound results. Here is the method:
An HL-60 cell line (human acute promyelocytic leukemia cells) was successively cultured in RPMI 1640 containing 20% fetal bovine serum (FBS) at 37° C. in 95% atmosphere/5% CO2. Before evaluation, the cells were pre-cultured for about 72 hours in the presence of 10 nM phorbol 12-myristate 13-acetate (PMA) to induce macrophage-like differentiation.
Evaluation compounds were dissolved in DMSO to obtain 30 mmol/L solutions (or suspensions). Each DMSO solution was diluted 100-fold with RPMI 1640 containing 2% FBS (final concentration of the compound: 300 μmol/L) to obtain a treatment solution. The culture supernatant of the differentiated HL-60 cells was removed, and each treatment solution was added and cultured for about 24 hours, followed by cytotoxicity evaluation.
The activity of lactate dehydrogenase (LDH) was measured in the treatment solutions exposed to the cells for about 24 hours by using a commercial kit (Cytotoxicity LDH Assay Kit-WST, Dojindo Laboratories) and a plate reader (Tecan Infinite M1000). The obtained measurement values were used to calculate cytotoxicity (%) as comparison values for each evaluation compound-treated group, with the no-treatment group taken as 0% and the cell lysis buffer-treated group taken as 100%. The test was conducted in triplicate in three wells each, and the average values were used as adopted values.

The nature of data set [1]: Study for confirmation of conversion to brexpiprazole in a buffer (stability of the evaluation compounds). The format is physicochemical. The conditions noted are these: in buffer, average of duplicate; for Concentration of brexpiprazole formed: 60-minute reaction sample; for Concentration of evaluation compound decreased: decrease in 60-minute vs 0-minute reaction sample. As to the method: The conversion from the evaluation compounds to brexpiprazole in a buffer (i.e., the stability of the evaluation compounds) was evaluated.
The Example 1 compound was dissolved in acetonitrile/water (1:1, v/v) to 10 mmol/L and further diluted with acetonitrile/water (1:1, v/v) to 100 μmol/L for use.
The other Example compounds and the Reference Example 5 compound to Reference Example 7 compound were each dissolved in DMSO to 10 mmol/L and further diluted with acetonitrile to 100 μmol/L for use, except for the following compounds.
The compounds of Examples 52, 95, 96, 117, and 130 (EX 52, EX 95, EX 96, EX 117, and EX 130) were dissolved in acetonitrile/water (8:2, v/v) to 10 mmol/L and further diluted with acetonitrile to 100 μmol/L for use.
The compound of Example 97 (EX 97) was dissolved in acetonitrile/water (8:2, v/v) to 10 mmol/L and further diluted with acetonitrile/water (8:2, v/v) to 100 μmol/L for use.
The compounds of Examples 15 and 116 (EX 15 and EX 116) were dissolved in DMSO to 1 mmol/L and further diluted with acetonitrile to 100 μmol/L for use.
The reaction was conducted by preparing each reaction solution such that the final concentration of each component was as follows. The test was conducted in duplicate.
For the compounds of Examples 1 to 8, 10 to 19, 26 to 27, 37, 50, 87 to 89, 91, 116, 121, 123, 150, and 151 (EX 1 to EX 8, EX 10 to EX 19, EX 26 to EX 27, EX 37, EX 50, EX 87 to EX 89, EX 91, EX 116, EX 121, EX 123, EX 150, and EX 151), and the compounds of Reference Examples 5 to 7 (REX 5 to REX 7), the reaction solution without the evaluation compound (198 μl) was pre-incubated at 37° C. for 3 minutes, and then each of the evaluation compound solutions (2 μl) was added and stirred; thereafter, the reaction was started at 37° C. At 0 minutes or 60 minutes after the start of the reaction, the reaction was stopped by adding and stirring a reaction stop solution (1000 μl) composed of acetonitrile/isopropanol (4:1, v/v) containing internal standard substances. However, the 0-minute reaction sample (198 μl) was prepared by adding the evaluation compound (2 μl) after adding the reaction stop solution (1000 μl). The samples after stopping the reaction were used as the measurement samples. Calibration curve samples with the same composition were prepared (final concentrations of the evaluation compounds and brexpiprazole: 0.01, 0.1, and 1 μmol/L, with the proviso that for the evaluation compounds only, the 0-minute reaction samples were also used as calibration curve samples for 1 μmol/L).
For the compounds of Examples 24 to 25, 28 to 29, 32 to 36, 40 to 49, 51 to 60, 62 to 64, 66 to 77, 80 to 86, 90, 92 to 111, 113, 115, 117 to 120, 122, 124 to 130, 132 to 147, and 152 to 160 (EX 24 to EX 25, EX 28 to EX 29, EX 32 to EX 36, EX 40 to EX 49, EX 51 to EX 60, EX 62 to EX 64, EX 66 to EX 77, EX 80 to EX 86, EX 90, EX 92 to EX 111, EX 113, EX 115, EX 117 to EX 120, EX 122, EX 124 to EX 130, EX 132 to EX 147, and EX 152 to EX 160), the reaction solution without the evaluation compound (148.5 μl) was pre-incubated at 37° C. for 3 minutes, and then each of the evaluation compound solutions (1.5 μl) was added and stirred; thereafter, the reaction was started at 37° C. At 0 minutes or 60 minutes after the start of the reaction, the reaction was stopped by adding and stirring a reaction stop solution (600 μl) composed of acetonitrile/isopropanol (4:1, v/v) containing internal standard substances. However, the 0-minute reaction sample (148.5 μl) was prepared by adding the evaluation compound (1.5 μl) after adding the reaction stop solution (600 μl). The samples after stopping the reaction were used as the measurement samples. Calibration curve samples with the same composition were prepared (final concentrations of the evaluation compounds and brexpiprazole: 0.01, 0.1, and 1 μmol/L, with the proviso that for the evaluation compounds only, the 0-minute reaction samples were also used as calibration curve samples for 1 μmol/L). […]

Regarding `CCOCCOCCOCCOC(=O)OCOP(=O)([O-])OC[N+]1(CCCCOc2ccc3ccc(=O)[nH]c3c2)CCN(c2cccc3sccc23)CC1` [EX 136, (4-(benzo[b]thiophen-4-yl)-1-(4-((2-oxo-1,2-dihydroquinolin-7-yl)oxy)butyl)piperazin-1-ium-1-yl)methyl (3-oxo-2,4,7,10,13-pentaoxapentadecyl) phosphate], in “in vitro”, the cytotoxicity at 24 h, 300 µM was -9%. In data set [1], the “Concentration of brexpiprazole formed” value stood at 0 nM and the “Concentration of evaluation compound decreased” value amounted to 0 nM.

For `CC(C)(C)C(=O)OCCCCCCOP(=O)([O-])OC[N+]1(CCCCOc2ccc3ccc(=O)[nH]c3c2)CCN(c2cccc3sccc23)CC1` [EX 102, (4-(benzo[b]thiophen-4-yl)-1-(4-((2-oxo-1,2-dihydroquinolin-7-yl)oxy)butyl)piperazin-1-ium-1-yl)methyl (6-(pivaloyloxy)hexyl) phosphate], the cytotoxicity at 24 h, 300 µM in the data set “in vitro” amounted to 16%. Further, in data set [1], the “Concentration of brexpiprazole formed” value amounted to 0 nM and the “Concentration of evaluation compound decreased” value amounted to 70 nM.

On to `CC(C)C(=O)OP(=O)([O-])OC[N+]1(CCCCOc2ccc3ccc(=O)[nH]c3c2)CCN(c2cccc3sccc23)CC1` [EX 149, (4-(benzothiophen-4-yl)-1-(4-((2-oxo-1H-quinolin-7-yl)oxy)butyl)piperazin-1-ium-1-yl)methyl 2-methylpropanoyl phosphate], for which the cytotoxicity at 24 h, 300 µM in the data set “in vitro” was -3%.

As for `O=c1ccc2ccc(OCCCC[N+]3(COP(=O)([O-])OCCCCCCCO)CCN(c4cccc5sccc45)CC3)cc2[nH]1` [EX 45, (4-(benzo[b]thiophen-4-yl)-1-(4-((2-oxo-1,2-dihydroquinolin-7-yl)oxy)butyl)piperazin-1-ium-1-yl)methyl (7-hydroxyheptyl) phosphate], the cytotoxicity at 24 h, 300 µM in “in vitro” turned out to be 3%. Further, in data set [1], the “Concentration of brexpiprazole formed” value amounted to 0 nM and the “Concentration of evaluation compound decreased” value came to 70 nM.

Take `O=C(OCOP(=O)([O-])OC[N+]1(CCCCOc2ccc3ccc(=O)[nH]c3c2)CCN(c2cccc3sccc23)CC1)OC1CCOCC1` [EX 141, (4-(benzo[b]thiophen-4-yl)-1-(4-((2-oxo-1,2-dihydroquinolin-7-yl)oxy)butyl)piperazin-1-ium-1-yl)methyl (((((tetrahydro-2H-pyran-4-yl)oxy)carbonyl)oxy)methyl) phosphate]: in “in vitro”, the cytotoxicity at 24 h, 300 µM came to 19%. For the same compound, in data set [1], the “Concentration of brexpiprazole formed” value came to 0 nM and the “Concentration of evaluation compound decreased” value is 20 nM.

`COCC(=O)OCOP(=O)([O-])OC[N+]1(CCCCOc2ccc3ccc(=O)[nH]c3c2)CCN(c2cccc3sccc23)CC1` [EX 30, (4-(benzo[b]thiophen-4-yl)-1-(4-((2-oxo-1,2-dihydroquinolin-7-yl)oxy)butyl)piperazin-1-ium-1-yl)methyl ((2-methoxyacetoxy)methyl) phosphate]: the cytotoxicity at 24 h, 300 µM in “in vitro” is 14%.

As for `CCC(=O)OP(=O)([O-])OC[N+]1(CCCCOc2ccc3ccc(=O)[nH]c3c2)CCN(c2cccc3sccc23)CC1` [EX 148, (4-(benzothiophen-4-yl)-1-(4-((2-oxo-1H-quinolin-7-yl)oxy)butyl)piperazin-1-ium-1-yl)methyl propanoyl phosphate], the cytotoxicity at 24 h, 300 µM in “in vitro” is -5%.

Turning to `O=C(O)CCOP(=O)([O-])OC[N+]1(CCCCOc2ccc3ccc(=O)[nH]c3c2)CCN(c2cccc3sccc23)CC1` [EX 112, (4-(benzo[b]thiophen-4-yl)-1-(4-((2-oxo-1,2-dihydroquinolin-7-yl)oxy)butyl)piperazin-1-ium-1-yl)methyl (2-carboxyethyl) phosphate], the cytotoxicity at 24 h, 300 µM in the data set “in vitro” is -7%.

As for `O=C(OCCCO)OCOP(=O)([O-])OC[N+]1(CCCCOc2ccc3ccc(=O)[nH]c3c2)CCN(c2cccc3sccc23)CC1` [EX 131, (4-(benzo[b]thiophen-4-yl)-1-(4-((2-oxo-1,2-dihydroquinolin-7-yl)oxy)butyl)piperazin-1-ium-1-yl)methyl ((((3-hydroxypropoxy)carbonyl)oxy)methyl) phosphate], the cytotoxicity at 24 h, 300 µM in the data set “in vitro” worked out at 10%.

Take `CC(C)=CCC/C(C)=C/COP(=O)([O-])OC[N+]1(CCCCOc2ccc3ccc(=O)[nH]c3c2)CCN(c2cccc3sccc23)CC1` [EX 39, (E)-(4-(benzo[b]thiophen-4-yl)-1-(4-((2-oxo-1,2-dihydroquinolin-7-yl)oxy)butyl)piperazin-1-ium-1-yl)methyl (3,7-dimethylocta-2,6-dien-1-yl) phosphate]: the cytotoxicity at 24 h, 300 µM in “in vitro” amounted to 2%.

Consider `CCOCC(=O)OCOP(=O)([O-])OC[N+]1(CCCCOc2ccc3ccc(=O)[nH]c3c2)CCN(c2cccc3sccc23)CC1` [EX 31, (4-(benzo[b]thiophen-4-yl)-1-(4-((2-oxo-1,2-dihydroquinolin-7-yl)oxy)butyl)piperazin-1-ium-1-yl)methyl ((2-ethoxyacetoxy)methyl) phosphate], for which the cytotoxicity at 24 h, 300 µM in “in vitro” is -8%.

Take `CC(C)=CCC/C(C)=C\COP(=O)([O-])OC[N+]1(CCCCOc2ccc3ccc(=O)[nH]c3c2)CCN(c2cccc3sccc23)CC1` [EX 38, (Z)-(4-(benzo[b]thiophen-4-yl)-1-(4-((2-oxo-1,2-dihydroquinolin-7-yl)oxy)butyl)piperazin-1-ium-1-yl)methyl (3,7-dimethylocta-2,6-dien-1-yl) phosphate]: the cytotoxicity at 24 h, 300 µM in the data set “in vitro” was found to be 0%.

In the case of `CCOC(=O)CCCCCOP(=O)([O-])OC[N+]1(CCCCOc2ccc3ccc(=O)[nH]c3c2)CCN(c2cccc3sccc23)CC1` [EX 61, (4-(benzo[b]thiophen-4-yl)-1-(4-((2-oxo-1,2-dihydroquinolin-7-yl)oxy)butyl)piperazin-1-ium-1-yl)methyl (6-ethoxy-6-oxohexyl) phosphate], the cytotoxicity at 24 h, 300 µM in the data set “in vitro” came to 5%.

`O=C(OC[N+]1(CCCCOc2ccc3ccc(=O)[nH]c3c2)CCN(c2cccc3sccc23)CC1)N1CCCCC1` [REX 4, 4-(benzo[b]thiophen-4-yl)-1-(4-((2-oxo-1,2-dihydroquinolin-7-yl)oxy)butyl)-1-(((piperidine-1-carbonyl)oxy)methyl)piperazin-1-ium iodide, reference compound]: the cytotoxicity at 24 h, 300 µM in the data set “in vitro” was 83%.
